Measurements from the supplement of paper PMC12076712.
± gives the standard deviation of the averaged measurements.

Tests used:
Assay in all cases: pIC50, kinobeads binding competition
Conditions in all cases: cell material: Jurkat lysate
UniProt Q13557 = biological target: UniProt Q13557
ACVR1 = biological target: T1, ACVR1 (UniProt Q04771)
T1 sequence (whole entry): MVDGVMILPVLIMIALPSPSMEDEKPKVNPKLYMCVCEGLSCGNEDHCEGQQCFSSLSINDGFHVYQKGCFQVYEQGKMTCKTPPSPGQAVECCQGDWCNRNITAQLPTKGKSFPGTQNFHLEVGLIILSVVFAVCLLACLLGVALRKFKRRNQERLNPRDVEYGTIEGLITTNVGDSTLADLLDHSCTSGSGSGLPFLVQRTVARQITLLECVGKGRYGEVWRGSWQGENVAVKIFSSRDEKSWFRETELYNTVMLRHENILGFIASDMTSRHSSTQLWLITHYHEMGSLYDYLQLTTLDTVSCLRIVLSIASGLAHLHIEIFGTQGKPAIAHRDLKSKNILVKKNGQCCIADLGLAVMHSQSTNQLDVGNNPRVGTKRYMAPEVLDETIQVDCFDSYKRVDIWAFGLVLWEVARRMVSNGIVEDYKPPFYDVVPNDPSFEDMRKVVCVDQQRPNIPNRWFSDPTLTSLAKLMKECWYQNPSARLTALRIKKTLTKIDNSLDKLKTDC

BLK = BLK (UniProt P51451)
ACVR2B = ACVR2B (UniProt Q13705)
UniProt Q9Y2H1 = biological target: UniProt Q9Y2H1
TAOK3 = TAOK3 (UniProt Q9H2K8)
ILK = biological target: T2, ILK (UniProt Q13418)
T2 sequence (whole entry): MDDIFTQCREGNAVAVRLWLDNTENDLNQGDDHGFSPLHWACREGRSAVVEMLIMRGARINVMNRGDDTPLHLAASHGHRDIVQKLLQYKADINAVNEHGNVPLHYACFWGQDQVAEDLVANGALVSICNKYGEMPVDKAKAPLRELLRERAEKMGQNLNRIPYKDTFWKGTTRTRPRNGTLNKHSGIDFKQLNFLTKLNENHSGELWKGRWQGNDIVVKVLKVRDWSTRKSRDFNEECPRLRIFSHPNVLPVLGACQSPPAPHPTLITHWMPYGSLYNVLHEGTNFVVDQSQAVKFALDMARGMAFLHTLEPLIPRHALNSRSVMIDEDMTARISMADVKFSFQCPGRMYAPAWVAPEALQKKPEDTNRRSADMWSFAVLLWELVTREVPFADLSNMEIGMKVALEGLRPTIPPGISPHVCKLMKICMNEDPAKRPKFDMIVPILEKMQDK

UniProt P19784 = biological target: UniProt P19784
MAPKAPK3 = MAPKAPK3 (UniProt Q16644)
PIP4K2A = biological target: T3, PIP4K2A (UniProt P48426)
T3 sequence (whole entry): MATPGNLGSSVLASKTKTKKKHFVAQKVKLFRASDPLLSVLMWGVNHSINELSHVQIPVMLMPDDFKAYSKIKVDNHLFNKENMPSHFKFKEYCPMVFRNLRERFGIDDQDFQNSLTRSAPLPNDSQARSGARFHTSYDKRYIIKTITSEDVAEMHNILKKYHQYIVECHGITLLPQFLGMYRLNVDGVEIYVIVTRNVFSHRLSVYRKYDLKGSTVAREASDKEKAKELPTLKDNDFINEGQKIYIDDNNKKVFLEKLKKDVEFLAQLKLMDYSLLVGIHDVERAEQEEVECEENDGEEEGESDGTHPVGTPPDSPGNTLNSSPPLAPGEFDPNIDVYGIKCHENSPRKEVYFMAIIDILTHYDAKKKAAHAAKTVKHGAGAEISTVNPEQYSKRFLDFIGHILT

GAK = biological target: T4, GAK (UniProt O14976)
T4 sequence (whole entry): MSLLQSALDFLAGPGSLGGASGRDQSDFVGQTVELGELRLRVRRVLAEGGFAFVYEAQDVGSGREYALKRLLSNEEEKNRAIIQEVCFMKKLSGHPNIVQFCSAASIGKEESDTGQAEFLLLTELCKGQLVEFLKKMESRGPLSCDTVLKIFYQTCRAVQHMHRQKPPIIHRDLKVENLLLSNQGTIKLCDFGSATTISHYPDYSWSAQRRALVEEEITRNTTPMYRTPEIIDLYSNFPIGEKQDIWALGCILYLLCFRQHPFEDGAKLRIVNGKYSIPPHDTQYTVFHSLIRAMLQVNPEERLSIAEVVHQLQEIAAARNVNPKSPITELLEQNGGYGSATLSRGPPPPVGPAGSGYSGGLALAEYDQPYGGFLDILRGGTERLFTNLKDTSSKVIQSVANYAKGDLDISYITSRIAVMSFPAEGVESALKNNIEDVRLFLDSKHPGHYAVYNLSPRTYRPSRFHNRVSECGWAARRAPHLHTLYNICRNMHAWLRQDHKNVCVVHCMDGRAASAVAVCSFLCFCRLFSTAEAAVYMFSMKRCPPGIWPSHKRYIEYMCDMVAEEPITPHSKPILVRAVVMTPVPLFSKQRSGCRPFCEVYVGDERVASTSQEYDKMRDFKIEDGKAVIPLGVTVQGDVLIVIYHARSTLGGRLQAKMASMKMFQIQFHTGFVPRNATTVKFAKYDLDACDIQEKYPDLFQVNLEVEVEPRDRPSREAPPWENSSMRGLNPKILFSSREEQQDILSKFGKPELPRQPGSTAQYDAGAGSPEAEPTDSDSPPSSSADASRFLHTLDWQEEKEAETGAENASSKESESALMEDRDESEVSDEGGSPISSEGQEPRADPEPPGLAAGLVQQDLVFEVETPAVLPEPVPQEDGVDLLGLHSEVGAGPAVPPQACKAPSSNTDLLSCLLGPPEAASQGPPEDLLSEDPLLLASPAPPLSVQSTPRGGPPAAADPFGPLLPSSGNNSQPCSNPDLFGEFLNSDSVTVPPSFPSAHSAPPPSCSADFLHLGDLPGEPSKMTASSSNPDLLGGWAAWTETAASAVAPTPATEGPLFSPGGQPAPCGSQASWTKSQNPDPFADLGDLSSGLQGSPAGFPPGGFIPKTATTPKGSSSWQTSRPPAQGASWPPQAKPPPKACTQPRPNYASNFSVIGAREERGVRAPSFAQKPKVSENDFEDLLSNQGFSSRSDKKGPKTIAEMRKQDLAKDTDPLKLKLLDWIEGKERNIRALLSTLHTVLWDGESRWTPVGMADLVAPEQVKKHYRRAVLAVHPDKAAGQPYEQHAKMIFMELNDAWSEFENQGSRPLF

Compound: CCc1cnn2c(NCc3ccc[n+]([O-])c3)cc(N3CCCC[C@H]3CCO)nc12 [dinaciclib]
- pIC50 (UniProt Q13557): < 4.52
- pIC50 (ACVR1): < 4.52
- pIC50 (BLK): < 4.52
- pIC50 (ACVR2B): < 4.52
- pIC50 (UniProt Q9Y2H1): < 4.52
- pIC50 (TAOK3): 5.79 ± 0.13
- pIC50 (ILK): < 4.52
- pIC50 (UniProt P19784): < 4.52
- pIC50 (MAPKAPK3): 6.8
- pIC50 (PIP4K2A): < 4.52
- pIC50 (GAK): < 4.52
